Experimental data published in PubChem BioAssay AID2060496 (Molecular Pharmacology Branch, DTP, NCI, 2025).

Tested on: 276233-004-R-J1-PDC complex spheroid viability
Test: Anticancer human tumor 276233-004-R-J1-PDC patient-derived colon adenocarcinoma cell line growth inhibition [GQUAD]
Settings: for IC50: curve of first compound; for viability, T/C: stronger effect = lower value
From the text: DNA G-quadruplex Stabilizer Agents in Combinations in Complex Spheroids
A high-throughput screen of multi-cell type tumor spheroids was designed to identify active combinations of DNA G-quadruplex stabilizer agents and targeted small molecules. Complex spheroids include a stromal component modeled by human endothelial cells (HUVEC) and fibroblasts modeled by human mesenchymal stem cells (MSCs). The concentration ranges selected for each drug and investigational agent were based upon clinically achievable concentrations if the clinical Cmax of the agent was known.
Compounds. The drugs and investigational agents: pidnarulex (CX-5461; NSC782164), APTO-253 (NSC789042), BRACO-19 (NSC847499), peposertib (NSC802822), ceralasertib (NSC780249), elimusertib (NSC800525), camonsertib (NSC841442), AZD-1390 (NSC803789), olaparib (NSC753686), talazoparib (NSC767125), ART-558 (NSC835418), sotorasib (NSC818433), MRTX-1133 (NSC836407), SN-38 (NSC673596), topotecan (NSC609699), etoposide (NSC141540), doxorubicin (NSC123127), gemcitabine (NSC613327), 5-fluorouracil (NSC19893), paclitaxel (NSC125973), vemurafenib (NSC761431), panobinostat (NSC761190), R-306465 (JNJ-16241199; NSC773264), adavosertib (NSC754352), TP-3654 (NSC805149), carboplatin (NSC241240), KSQ-4279 (NSC840948), and staurosporine (NSC755774) were obtained from the National Cancer Institute (NCI) Developmental Therapeutics Program Chemical Repository (34). The FDA-approved anticancer drug set is available from the NCI Developmental Therapeutics Program. […] The stock solutions were prepared in dimethyl sulfoxide (DMSO, Sigma-Aldrich, St. Louis, MO, cat. D2650) at 800-fold the tested concentration and stored at -70 degrees C prior to their use. All drugs and investigational agents were tested over a range starting from a high concentration at or near the clinical Cmax and decreasing in half-log increments. If the clinical Cmax for an agent had not been determined, the highest concentration tested was 10 microM.
2.3 Cell Culture. All cells were maintained in an incubator at 37 degrees C and 5% CO2 with 95% humidity. The PDC lines were cultured according to standard operating procedures established by the NCI PDMR. All PDCs were thawed and cultured in Matrigel-coated flasks prepared with a working solution of 1X Ham's F-12 nutrient mix, without supplementation (Invitrogen, cat. 11765054), 100 U/mL penicillin-streptomycin (Invitrogen, cat. 15140122), and 2.5% Matrigel (Corning Inc., cat. 354248) for the first three passages. The 857933-349-R-J2-PDC line was cultured in 6C/Colon 1B media, which includes advanced DMEM/F-12 (Thermo Fisher Scientific, cat. 12634028), 10 mM HEPES (Thermo Fisher Scientific, cat. 15630080), 1X GlutaMAX supplement (Thermo Fisher Scientific, cat. 35050061), 0.1 mg/mL primocin (InvivoGen, cat. ant-pm-2), 10% defined fetal bovine serum, heat inactivated (HyClone Laboratories Inc., cat. SH30070.03HI), 50% L-WRN conditioned media (ATCC, cat. CRL-3276), 1.25 mM N-Acetyl-L-cysteine (Sigma-Aldrich, cat. A9165), 10 mM nicotinamide (Sigma-Aldrich, cat. N0636), 1X B-27 supplement (Thermo Fisher Scientific, cat. 17504044), 1X N-2 supplement (Thermo Fisher Scientific, cat. 17502048), 10 microM Y-27632 dihydrochloride (Tocris Bioscience, cat. 1254), and 50 ng/mL human EGF recombinant protein (Thermo Fisher Scientific, cat. PHG0311). The 485176-168-R4-J1-PDC line was cultured in Panc media, which includes all 6C/Colon 1B media components plus 100 ng/mL human FGF-10 (Thermo Fisher Scientific, cat. 100-26), 500 nM SB-431542 (Selleckchem, cat. S1067), and gastrin (Tocris, cat. 3006).
[…]

[1] = second compound 0.0316 µM, first compound 0.000999 µM
[2] = second compound 0.0316 µM, first compound 0.00316 µM
[3] = second compound 0.0316 µM, first compound 0.00999 µM
[4] = second compound 0.0316 µM, first compound 0.0316 µM
[5] = second compound 0.0316 µM, first compound 0.0999 µM
[6] = second compound 0.0316 µM, first compound 0.316 µM
[7] = second compound 0.1 µM, first compound 0.000999 µM
[8] = second compound 0.1 µM, first compound 0.00316 µM
[9] = second compound 0.1 µM, first compound 0.00999 µM
[10] = second compound 0.1 µM, first compound 0.0316 µM
[11] = second compound 0.1 µM, first compound 0.0999 µM
[12] = second compound 0.1 µM, first compound 0.316 µM
[13] = second compound 0.316 µM, first compound 0.000999 µM
[14] = second compound 0.316 µM, first compound 0.00316 µM
[15] = second compound 0.316 µM, first compound 0.00999 µM
[16] = second compound 0.316 µM, first compound 0.0316 µM
[17] = second compound 0.316 µM, first compound 0.0999 µM
[18] = second compound 0.316 µM, first compound 0.316 µM
[19] = second compound 1 µM, first compound 0.000999 µM
[20] = second compound 1 µM, first compound 0.00316 µM
[21] = second compound 1 µM, first compound 0.00999 µM
[22] = second compound 1 µM, first compound 0.0316 µM
[23] = second compound 1 µM, first compound 0.0999 µM
[24] = second compound 1 µM, first compound 0.316 µM
[25] = second compound 3.16 µM, first compound 0.000999 µM
[26] = second compound 3.16 µM, first compound 0.00316 µM
[27] = second compound 3.16 µM, first compound 0.00999 µM
[28] = second compound 3.16 µM, first compound 0.0316 µM
[29] = second compound 3.16 µM, first compound 0.0999 µM
[30] = second compound 3.16 µM, first compound 0.316 µM
[31] = second compound 10 µM, first compound 0.000999 µM
[32] = second compound 10 µM, first compound 0.00316 µM
[33] = second compound 10 µM, first compound 0.00999 µM
[34] = second compound 10 µM, first compound 0.0316 µM
[35] = second compound 10 µM, first compound 0.0999 µM
[36] = second compound 10 µM, first compound 0.316 µM
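Also: spheroids exposed to drugs for seven days.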
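For viability, T/C in this document: 100% = DMSO vehicle control viability.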

CC[C@@]1(O)C(=O)OCc2c1cc1n(c2=O)Cc2cc3c(CN(C)C)c(O)ccc3nc2-1 + CN(C)c1ccc(Nc2c3ccc(NC(=O)CCN4CCCC4)cc3nc3cc(NC(=O)CCN4CCCC4)ccc23)cc1
IC50 (second compound 0.0316 µM): > 316 nM
IC50 (second compound 0.1 µM): > 316 nM
IC50 (second compound 0.316 µM): > 316 nM
IC50 (second compound 1 µM): > 316 nM
IC50 (second compound 3.16 µM): 93 nM
IC50 (second compound 10 µM): 88.1 nM
viability, T/C [1]: 89.7%
viability, T/C [2]: 110%
viability, T/C [3]: 91.8%
viability, T/C [4]: 103%
viability, T/C [5]: 95.5%
viability, T/C [6]: 91.2%
viability, T/C [7]: 84.2%
viability, T/C [8]: 87.7%
viability, T/C [9]: 84.9%
viability, T/C [10]: 112%
viability, T/C [11]: 86.1%
viability, T/C [12]: 85.4%
viability, T/C [13]: 68.2%
viability, T/C [14]: 84.2%
viability, T/C [15]: 66.5%
viability, T/C [16]: 58.5%
viability, T/C [17]: 64.8%
viability, T/C [18]: 82%
viability, T/C [19]: 62.6%
viability, T/C [20]: 56.4%
viability, T/C [21]: 66.7%
viability, T/C [22]: 51.6%
viability, T/C [23]: 77.5%
viability, T/C [24]: 57.5%
viability, T/C [25]: 64.1%
viability, T/C [26]: 61.3%
viability, T/C [27]: 56.2%
viability, T/C [28]: 50%
viability, T/C [29]: 52.5%
viability, T/C [30]: 46.8%
viability, T/C [31]: 58%
viability, T/C [32]: 58.5%
viability, T/C [33]: 46.7%
viability, T/C [34]: 66.1%
viability, T/C [35]: 43.8%
viability, T/C [36]: 39.8%

CCc1c2c(nc3ccc(O)cc13)-c1cc3c(c(=O)n1C2)COC(=O)[C@]3(O)CC + CN(C)c1ccc(Nc2c3ccc(NC(=O)CCN4CCCC4)cc3nc3cc(NC(=O)CCN4CCCC4)ccc23)cc1
IC50 (second compound 0.0316 µM): > 316 nM
IC50 (second compound 0.1 µM): > 316 nM
IC50 (second compound 0.316 µM): > 316 nM
IC50 (second compound 1 µM): > 316 nM
IC50 (second compound 3.16 µM): < 0.999 nM
IC50 (second compound 10 µM): < 0.999 nM
viability, T/C [1]: 102%
viability, T/C [2]: 104%
viability, T/C [3]: 104%
viability, T/C [4]: 105%
viability, T/C [5]: 108%
viability, T/C [6]: 117%
viability, T/C [7]: 94.3%
viability, T/C [8]: 84.9%
viability, T/C [9]: 101%
viability, T/C [10]: 107%
viability, T/C [11]: 99.7%
viability, T/C [12]: 117%
viability, T/C [13]: 60.1%
viability, T/C [14]: 71.1%
viability, T/C [15]: 75.7%
viability, T/C [16]: 76.4%
viability, T/C [17]: 79.5%
viability, T/C [18]: 91.8%
viability, T/C [19]: 60.3%
viability, T/C [20]: 50.9%
viability, T/C [21]: 67.2%
viability, T/C [22]: 71.6%
viability, T/C [23]: 70%
viability, T/C [24]: 89.7%
viability, T/C [25]: 50.8%
viability, T/C [26]: 46.4%
viability, T/C [27]: 72.6%
viability, T/C [28]: 70.8%
viability, T/C [29]: 75.3%
viability, T/C [30]: 70.4%
viability, T/C [31]: 44%
viability, T/C [32]: 55.1%
viability, T/C [33]: 59.1%
viability, T/C [34]: 65.9%
viability, T/C [35]: 78.5%
viability, T/C [36]: 76.4%
